Measured values from patent US20120029187A1, “HALOALKYLSULFONANILIDE DERIVATIVE” (Nissan Chemical Industries, Ltd., priority 2009, published 2012).

Key:
Assay type in all cases: in vivo
transplanted rice = test: Test Example 1: preemergence treatment under submerged conditions, effect on crop; conditions: dose 2.52 g/a
Procedure, shortened: (§1)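 Flooded-paddy preemergence assay; EC diluted with water, surface-applied at weed seeding; doses g/a; rice transplanted at 2.5 leaves; 0–5 mortality score after 3 weeks.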

large crabgrass [1] = test: Test Example 4: herbicidal effect in foliage treatment; conditions: three weeks after application
Procedure, shortened: (§2)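 Sowing in sterilized diluvial soil, ~1.5 cm cover; growth 14 d, 25–30° C greenhouse; foliar spray of water-diluted EC at predetermined g/a; scoring 3 wk later on graded scale.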

common lambsquater [2] = test: as above; conditions: three weeks after application
Procedure, shortened: as §2

barnyardgrass [3] = test: as above; conditions: three weeks after application
Procedure, shortened: as §2

giant foxtail [4] = test: as above; conditions: three weeks after application
Procedure, shortened: as §2

common chickweed [5] = test: as above; conditions: three weeks after application
Procedure, shortened: as §2

Italian ryegrass [6] = test: as above; conditions: three weeks after application
Procedure, shortened: as §2

velvetleaf [7] = test: as above; conditions: dose 3.2 g/a, three weeks after application
Procedure, shortened: as §2

water foxtail [8] = test: as above; conditions: three weeks after application
Procedure, shortened: as §2

common ragweed [9] = test: as above; conditions: three weeks after application
Procedure, shortened: as §2

posumbu knotweed = test: as above; conditions: dose 3.2 g/a, three weeks after application
Procedure, shortened: as §2

redroot pigweed [10] = test: as above; conditions: dose 3.2 g/a, three weeks after application
Procedure, shortened: as §2

wild oat [11] = test: as above; conditions: three weeks after application
Procedure, shortened: as §2

beadstraw [12] = test: as above; conditions: three weeks after application
Procedure, shortened: as §2

large crabgrass [13] = test: Test Example 3: herbicidal effects in soil treatment
Procedure, shortened: (§3)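 Seeds were sown in sterilized diluvial soil and covered with about 1.5 cm of soil. Compounds, formulated as emulsifiable concentrates and diluted with water, were sprayed evenly over the soil surface at set doses in g/a. Herbicidal effect was scored on a rating scale three weeks later.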

common lambsquater [14] = test: as above
Procedure, shortened: as §3

barnyardgrass [15] = test: as above
Procedure, shortened: as §3

giant foxtail [16] = test: as above
Procedure, shortened: as §3

common chickweed [17] = test: as above
Procedure, shortened: as §3

Italian ryegrass [18] = test: as above
Procedure, shortened: as §3

velvetleaf [19] = test: as above; conditions: dose 3.2 g/a
Procedure, shortened: as §3

water foxtail [20] = test: as above
Procedure, shortened: as §3

common ragweed [21] = test: as above; conditions: dose 3.2 g/a
Procedure, shortened: as §3

redroot pigweed [22] = test: as above
Procedure, shortened: as §3

wild oat [23] = test: as above
Procedure, shortened: as §3

beadstraw [24] = test: as above
Procedure, shortened: as §3

barnyardgrass [25] = test: Test Example 1: herbicidal effects in preemergence treatment under submerged conditions; conditions: dose 2.52 g/a
Procedure, shortened: as §1

ducksalad [26] = test: as above; conditions: dose 2.52 g/a
Procedure, shortened: as §1

bulrush [27] = test: as above; conditions: dose 2.52 g/a
Procedure, shortened: as §1

barnyardgrass [28] = test: Test Example 2: herbicidal effects during the vegetation period under submerged conditions; conditions: treatment during the vegetation period under submerged conditions; dose 2.52 g/a
Procedure, shortened: (§4)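 Barnyardgrass, bulrush and ducksalad were co-sown in alluvial soil flooded to 4 cm and grown in a greenhouse at 25 to 30° C. At the 1- or 2-leaf stage, water-diluted emulsifiable concentrates went onto the water surface at set doses (g/a). Herbicidal effect was scored three weeks later on a graded scale.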

ducksalad [29] = test: as above; conditions: treatment during the vegetation period under submerged conditions; dose 2.52 g/a
Procedure, shortened: as §4

bulrush [30] = test: as above; conditions: treatment during the vegetation period under submerged conditions; dose 2.52 g/a
Procedure, shortened: as §4

## CCOC(=O)N(c1ccccc1CN1CC(C)(C)OCC1=O)S(=O)(=O)C(F)(F)F [Compound I-16]
Transplanted rice
  a: transplanted rice, effect on crop (evaluation scale 0-5): 2 (mortality of at least 20% and less than 40%)
Large crabgrass [1]; dose 3.2 g/a
  D: large crabgrass, herbicidal effect: 4 (mortality of at least 70% and less than 90%)
Common lambsquater [2]; dose 3.2 g/a
  L: common lambsquater, herbicidal effect: 2 (mortality of at least 20% and less than 40%)
Barnyardgrass [3]; dose 3.2 g/a
  A: barnyardgrass, herbicidal effect: 5 (mortality of 90% or above (nearly complete death))
Giant foxtail [4]; dose 3.2 g/a
  E: giant foxtail, herbicidal effect: 4 (mortality of at least 70% and less than 90%)
Common chickweed [5]; dose 3.2 g/a
  N: common chickweed, herbicidal effect: 5 (mortality of 90% or above (nearly complete death))
Italian ryegrass [6]; dose 3.2 g/a
  H: Italian ryegrass, herbicidal effect: 4 (mortality of at least 70% and less than 90%)
Velvetleaf [7]
  I: velvetleaf, herbicidal effect: 5 (mortality of 90% or above (nearly complete death))
Water foxtail [8]; dose 3.2 g/a
  G: water foxtail, herbicidal effect: 5 (mortality of 90% or above (nearly complete death))
Common ragweed [9]; dose 3.2 g/a
  J: common ragweed, herbicidal effect: 5 (mortality of 90% or above (nearly complete death))
Posumbu knotweed
  M: posumbu knotweed, herbicidal effect: 3 (mortality of at least 40% and less than 70%)
Redroot pigweed [10]
  K: redroot pigweed, herbicidal effect: 2 (mortality of at least 20% and less than 40%)
Wild oat [11]; dose 3.2 g/a
  F: wild oat, herbicidal effect: 3 (mortality of at least 40% and less than 70%)
Beadstraw [12]; dose 3.2 g/a
  O: beadstraw, herbicidal effect: 3 (mortality of at least 40% and less than 70%)
Large crabgrass [13]; dose 3.2 g/a
  D: large crabgrass, herbicidal effect (evaluation scale 0-5): 5 (mortality of 90% or above (nearly complete death))
Common lambsquater [14]; dose 3.2 g/a
  L: common lambsquater, herbicidal effect (evaluation scale 0-5): 3 (mortality of at least 40% and less than 70%)
Barnyardgrass [15]; dose 3.2 g/a
  A: barnyardgrass, herbicidal effect (evaluation scale 0-5): 5 (mortality of 90% or above (nearly complete death))
Giant foxtail [16]; dose 3.2 g/a
  E: giant foxtail, herbicidal effect (evaluation scale 0-5): 5 (mortality of 90% or above (nearly complete death))
Common chickweed [17]; dose 3.2 g/a
  N: common chickweed, herbicidal effect (evaluation scale 0-5): 5 (mortality of 90% or above (nearly complete death))
Italian ryegrass [18]; dose 3.2 g/a
  H: Italian ryegrass, herbicidal effect (evaluation scale 0-5): 4 (mortality of at least 70% and less than 90%)
Velvetleaf [19]
  I: velvetleaf, herbicidal effect (evaluation scale 0-5): 5 (mortality of 90% or above (nearly complete death))
Water foxtail [20]; dose 3.2 g/a
  G: water foxtail, herbicidal effect (evaluation scale 0-5): 5 (mortality of 90% or above (nearly complete death))
Common ragweed [21]
  J: common ragweed, herbicidal effect (evaluation scale 0-5): 5 (mortality of 90% or above (nearly complete death))
Redroot pigweed [22]; dose 3.2 g/a
  K: redroot pigweed, herbicidal effect (evaluation scale 0-5): 5 (mortality of 90% or above (nearly complete death))
Wild oat [23]; dose 3.2 g/a
  F: wild oat, herbicidal effect (evaluation scale 0-5): 3 (mortality of at least 40% and less than 70%)
Beadstraw [24]; dose 3.2 g/a
  O: beadstraw, herbicidal effect (evaluation scale 0-5): 0 (mortality of less than 5% (almost ineffective))
Barnyardgrass [25]
  A: barnyardgrass, herbicidal effect (evaluation scale 0-5): 5 (mortality of 90% or above (nearly complete death))
Ducksalad [26]
  C: ducksalad, herbicidal effect (evaluation scale 0-5): 5 (mortality of 90% or above (nearly complete death))
Bulrush [27]
  B: bulrush, herbicidal effect (evaluation scale 0-5): 5 (mortality of 90% or above (nearly complete death))
Barnyardgrass [28]
  A: barnyardgrass, herbicidal effect (evaluation scale 0-5): 5 (mortality of 90% or above (nearly complete death))
Ducksalad [29]
  C: ducksalad, herbicidal effect (evaluation scale 0-5): 5 (mortality of 90% or above (nearly complete death))
Bulrush [30]
  B: bulrush, herbicidal effect (evaluation scale 0-5): 5 (mortality of 90% or above (nearly complete death))

## CCC(=O)N(c1ccccc1CN1COC(C)(C)CC1=O)S(=O)(=O)C(F)(F)F [II-19, 6,6-dimethyl-3-[2-(N-ethylcarbonyl-N-trifluoromethanesulfonyl)aminobenzyl]-1,3-oxazinan-4-one]
Transplanted rice
  a: transplanted rice, effect on crop (evaluation scale 0-5): 0 (mortality of less than 5% (almost ineffective))
Large crabgrass [1]; dose 6.3 g/a
  D: large crabgrass, herbicidal effect: 4 (mortality of at least 70% and less than 90%)
Common lambsquater [2]; dose 6.3 g/a
  L: common lambsquater, herbicidal effect: 0 (mortality of less than 5% (almost ineffective))
Barnyardgrass [3]; dose 6.3 g/a
  A: barnyardgrass, herbicidal effect: 5 (mortality of 90% or above (nearly complete death))
Giant foxtail [4]; dose 6.3 g/a
  E: giant foxtail, herbicidal effect: 4 (mortality of at least 70% and less than 90%)
Common chickweed [5]; dose 6.3 g/a
  N: common chickweed, herbicidal effect: 4 (mortality of at least 70% and less than 90%)
Italian ryegrass [6]; dose 6.3 g/a
  H: Italian ryegrass, herbicidal effect: 4 (mortality of at least 70% and less than 90%)
Water foxtail [8]; dose 6.3 g/a
  G: water foxtail, herbicidal effect: 5 (mortality of 90% or above (nearly complete death))
Common ragweed [9]; dose 6.3 g/a
  J: common ragweed, herbicidal effect: 5 (mortality of 90% or above (nearly complete death))
Wild oat [11]; dose 6.3 g/a
  F: wild oat, herbicidal effect: 0 (mortality of less than 5% (almost ineffective))
Beadstraw [12]; dose 6.3 g/a
  O: beadstraw, herbicidal effect: 5 (mortality of 90% or above (nearly complete death))
Large crabgrass [13]; dose 6.3 g/a
  D: large crabgrass, herbicidal effect (evaluation scale 0-5): 5 (mortality of 90% or above (nearly complete death))
Common lambsquater [14]; dose 6.3 g/a
  L: common lambsquater, herbicidal effect (evaluation scale 0-5): 0 (mortality of less than 5% (almost ineffective))
Barnyardgrass [15]; dose 6.3 g/a
  A: barnyardgrass, herbicidal effect (evaluation scale 0-5): 5 (mortality of 90% or above (nearly complete death))
Giant foxtail [16]; dose 6.3 g/a
  E: giant foxtail, herbicidal effect (evaluation scale 0-5): 2 (mortality of at least 20% and less than 40%)
Common chickweed [17]; dose 6.3 g/a
  N: common chickweed, herbicidal effect (evaluation scale 0-5): 4 (mortality of at least 70% and less than 90%)
Italian ryegrass [18]; dose 6.3 g/a
  H: Italian ryegrass, herbicidal effect (evaluation scale 0-5): 5 (mortality of 90% or above (nearly complete death))
Water foxtail [20]; dose 6.3 g/a
  G: water foxtail, herbicidal effect (evaluation scale 0-5): 5 (mortality of 90% or above (nearly complete death))
Redroot pigweed [22]; dose 6.3 g/a
  K: redroot pigweed, herbicidal effect (evaluation scale 0-5): 2 (mortality of at least 20% and less than 40%)
Wild oat [23]; dose 6.3 g/a
  F: wild oat, herbicidal effect (evaluation scale 0-5): 0 (mortality of less than 5% (almost ineffective))
Beadstraw [24]; dose 6.3 g/a
  O: beadstraw, herbicidal effect (evaluation scale 0-5): 4 (mortality of at least 70% and less than 90%)
Barnyardgrass [25]
  A: barnyardgrass, herbicidal effect (evaluation scale 0-5): 5 (mortality of 90% or above (nearly complete death))
Ducksalad [26]
  C: ducksalad, herbicidal effect (evaluation scale 0-5): 5 (mortality of 90% or above (nearly complete death))
Bulrush [27]
  B: bulrush, herbicidal effect (evaluation scale 0-5): 5 (mortality of 90% or above (nearly complete death))
Barnyardgrass [28]
  A: barnyardgrass, herbicidal effect (evaluation scale 0-5): 5 (mortality of 90% or above (nearly complete death))
Ducksalad [29]
  C: ducksalad, herbicidal effect (evaluation scale 0-5): 5 (mortality of 90% or above (nearly complete death))
Bulrush [30]
  B: bulrush, herbicidal effect (evaluation scale 0-5): 5 (mortality of 90% or above (nearly complete death))
